Here are results for 21 compounds from patent publication US20250101028A1, “HETEROCYCLIC COMPOUNDS, COMPOSITIONS THEREOF, AND METHODS OF TREATMENT THEREWITH” (BeiGene, Ltd., priority 2022, published 2025).

SMILES strings stand for the structures.

This experiment deals with T1, GST-tagged GDP-loaded KRAS G12V (amino acids 1-169) (Homo sapiens, UniProt P01116, G12V).
T1 construct: GST-tagged GDP-loaded KRAS G12V (amino acids 1-169); made in house; host or cells: E. coli
Kind of experiment: KRAS G12V probe displacement assay (TR-FRET). Format: binding. To be noted: displacement of biotinylated probe 2 from GDP-loaded KRAS G12V. Summed up:
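GST-tagged GDP-loaded KRAS 1-169 (WT 3 nM; G12V 2 nM final) preincubated 1 h at 24 °C with serially diluted compound in HEPES pH 7.5 buffer, then biotinylated probe added (probe 1 60 nM for WT; probe 2 2.5 nM for G12V), 1 h. Anti-GST-Tb/streptavidin-XL665 TR-FRET 665/620 ratio; IC50 by four-parameter fit.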

Broadly, the IC50 is the concentration that gives 50% inhibition. Lower therefore signals inhibition by little substance.

T1 sequence (P01116 1-169 isoform P01116-2 G12V): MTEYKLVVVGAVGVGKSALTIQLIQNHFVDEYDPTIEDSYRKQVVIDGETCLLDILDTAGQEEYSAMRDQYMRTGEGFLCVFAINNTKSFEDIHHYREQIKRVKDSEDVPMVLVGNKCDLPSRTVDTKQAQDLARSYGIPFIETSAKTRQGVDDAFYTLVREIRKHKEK

In turn, `CC1CN(c2nc(OC[C@@]34CCCN3C[C@H](F)C4)nc3c(F)c(-c4cc(N)cc(Cl)c4C(F)(F)F)ncc23)CCC1C#N` (stereo partly drawn) [Example 123, 1-(7-(5-amino-3-chloro-2-(trifluoromethyl)phenyl)-8-fluoro-2-(((2R,7aS)-2-fluorotetrahydro-1H-pyrrolizin-7a(5H)-yl)methoxy)pyrido[4,3-d]pyrimidin-4-yl)-3-methylpiperidine-4-carbonitrile] gave an IC50 of 22 nM.
For the compound `Nc1nc2c(-c3c(C(F)(F)F)cc4c(N5CC(CO)C5)nc(OC[C@@]56CCCN5C[C@H](F)C6)nc4c3F)ccc(F)c2s1` [Example 48, (1-(7-(2-amino-7-fluorobenzo[d]thiazol-4-yl)-8-fluoro-2-(((2R,7aS)-2-fluorotetrahydro-1H-pyrrolizin-7a(5H)-yl)methoxy)-6-(trifluoromethyl)quinazolin-4-yl)azetidin-3-yl)methanol], the IC50 came out at 4.1 nM. Against the preceding compound, the IC50 is about 5.4-fold lower.
In turn, `COC1CN(c2nc(OC[C@@]34CCCN3C[C@H](F)C4)nc3c(F)c(-c4ccc(F)c5sc(N)nc45)c(C(F)(F)F)cc23)C1` [Example 45, 7-fluoro-4-(8-fluoro-2-(((2R,7aS)-2-fluorotetrahydro-1H-pyrrolizin-7a(5H)-yl)methoxy)-4-(3-methoxyazetidin-1-yl)-6-(trifluoromethyl)quinazolin-7-yl)benzo[d]thiazol-2-amine] yielded an IC50 of 15 nM.
The compound `Nc1nc2c(-c3c(C(F)(F)F)cc4c(N5CCC6(CC5)CN(CC5CC5)C(=O)O6)nc(OC[C@@]56CCCN5C[C@H](F)C6)nc4c3F)ccc(F)c2s1` [Example 92, 8-(7-(2-amino-7-fluorobenzo[d]thiazol-4-yl)-8-fluoro-2-(((2R,7aS)-2-fluorotetrahydro-1H-pyrrolizin-7a(5H)-yl)methoxy)-6-(trifluoromethyl)quinazolin-4-yl)-3-(cyclopropylmethyl)-1-oxa-3,8-diazaspiro[4.5]decan-2-one] had an IC50 of 2.8 nM.
In the case of `Nc1nc2c(-c3c(Cl)cc4c(NC5CC5)nc(OC[C@@]56CCCN5C[C@H](F)C6)nc4c3F)ccc(F)c2s1` [Example 28, 4-(6-chloro-4-(cyclopropylamino)-8-fluoro-2-(((2R,7aS)-2-fluorotetrahydro-1H-pyrrolizin-7a(5H)-yl)methoxy)quinazolin-7-yl)-7-fluorobenzo[d]thiazol-2-amine], the IC50 stood at 3.8 nM.
Turning to `CC1CC1Nc1nc(OC[C@@]23CCCN2C[C@H](F)C3)nc2c(F)c(-c3ccc(F)c4sc(N)nc34)c(C(F)(F)F)cc12` (stereo partly drawn) [Example 3, 7-fluoro-4-(8-fluoro-2-(((2R,7aS)-2-fluorotetrahydro-1H-pyrrolizin-7a(5H)-yl)methoxy)-4-((2-methylcyclopropyl)amino)-6-(trifluoromethyl)quinazolin-7-yl)benzo[d]thiazol-2-amine], the IC50 is 6.2 nM.
For the compound `Nc1cc(Cl)c(C(F)(F)F)c(-c2ncc3c(NC45CC(C4)C5)nc(OC[C@@]45CCCN4C[C@H](F)C5)nc3c2F)c1` [Example 112, 7-(5-amino-3-chloro-2-(trifluoromethyl)phenyl)-N-(bicyclo [1.1.1]pentan-1-yl)-8-fluoro-2-(((2R,7aS)-2-fluorotetrahydro-1H-pyrrolizin-7a(5H)-yl)methoxy) pyrido[4,3-d]pyrimidin-4-amine], the IC50 was determined as 19 nM.
The figure for `CC1CN(c2nc(OC[C@@]34CCCN3C[C@H](F)C4)nc3c(F)c(-c4cc(N)cc(Cl)c4C(F)(F)F)ncc23)CCO1` (stereo partly drawn) [Example 119, 3-chloro-5-(8-fluoro-2-(((2R,7aS)-2-fluorotetrahydro-1H-pyrrolizin-7a(5H)-yl)methoxy)-4-(2-methylmorpholino)pyrido[4,3-d]pyrimidin-7-yl)-4-(trifluoromethyl)aniline] is 24 nM; for `CC(=O)N1C[C@@H]2[C@H](C1)[C@H]2Nc1nc(OC[C@@]23CCCN2C[C@H](F)C3)nc2c(F)c(-c3ccc(F)c4sc(N)nc34)c(Cl)cc12` [Example 30, 1-((1R,5S,6s)-6-((7-(2-amino-7-fluorobenzo[d]thiazol-4-yl)-6-chloro-8-fluoro-2-(((2R,7aS)-2-fluorotetrahydro-1H-pyrrolizin-7a(5H)-yl)methoxy)quinazolin-4-yl)amino)-3-azabicyclo[3.1.0]hexan-3-yl)ethan-1-one] it is 3.5 nM; for `CC1CN(c2nc(OC[C@@]34CCCN3C[C@H](F)C4)nc3c(F)c(-c4ccc(F)c5sc(N)nc45)c(C(F)(F)F)cc23)C1` [Example 34, 7-fluoro-4-(8-fluoro-2-(((2R,7aS)-2-fluorotetrahydro-1H-pyrrolizin-7a(5H)-yl)methoxy)-4-(3-methylazetidin-1-yl)-6-(trifluoromethyl)quinazolin-7-yl)benzo[d]thiazol-2-amine] it is 52 nM.
`Nc1nc2c(-c3c(C(F)(F)F)cc4c(N5CCCC(O)CC5)nc(OC[C@@]56CCCN5C[C@H](F)C6)nc4c3F)ccc(F)c2s1` (stereo partly drawn) [Example 84, 1-(7-(2-amino-7-fluorobenzo[d]thiazol-4-yl)-8-fluoro-2-(((2R,7aS)-2-fluorotetrahydro-1H-pyrrolizin-7a(5H)-yl)methoxy)-6-(trifluoromethyl)quinazolin-4-yl)azepan-4-ol] displayed an IC50 of 0.98 nM.
Turning to `Nc1nc2c(-c3c(C(F)(F)F)cc4c(N5CC[C@H](O)C5)nc(OC[C@@]56CCCN5C[C@H](F)C6)nc4c3F)ccc(F)c2s1` [Example 64, (3S)-1-(7-(2-amino-7-fluorobenzo[d]thiazol-4-yl)-8-fluoro-2-(((2R,7aS)-2-fluorotetrahydro-1H-pyrrolizin-7a(5H)-yl)methoxy)-6-(trifluoromethyl)quinazolin-4-yl)pyrrolidin-3-ol], the half-inhibitory concentration (IC50) is 4.3 nM.
As for `N#CC1(F)CCN(c2nc(OC[C@@]34CCCN3C[C@H](F)C4)nc3c(F)c(-c4ccc(F)c5sc(N)nc45)c(C(F)(F)F)cc23)CC1` [Example 70, 1-(7-(2-amino-7-fluorobenzo[d]thiazol-4-yl)-8-fluoro-2-(((2R,7aS)-2-fluorotetrahydro-1H-pyrrolizin-7a(5H)-yl)methoxy)-6-(trifluoromethyl)quinazolin-4-yl)-4-fluoropiperidine-4-carbonitrile], the IC50 turned out to be 7.5 nM.
Turning to `Cc1cc(N)nc(-c2c(Cl)cc3c(N4CC[C@H](O)C4)nc(OC[C@@]45CCCN4C[C@H](F)C5)nc3c2F)c1C(F)(F)F` [Example 102, (3S)-1-(7-(6-amino-4-methyl-3-(trifluoromethyl)pyridin-2-yl)-6-chloro-8-fluoro-2-(((2R,7aS)-2-fluorotetrahydro-1H-pyrrolizin-7a(5H)-yl)methoxy)quinazolin-4-yl)pyrrolidin-3-ol], the IC50 was 46 nM.
Compound `N#CCC1CCCN(c2nc(OC[C@@]34CCCN3C[C@H](F)C4)nc3c(F)c(-c4cc(N)cc(Cl)c4C(F)(F)F)ncc23)C1` (stereo partly drawn) [Example 126, 2-(1-(7-(5-amino-3-chloro-2-(trifluoromethyl)phenyl)-8-fluoro-2-(((2R,7aS)-2-fluorotetrahydro-1H-pyrrolizin-7a(5H)-yl)methoxy)pyrido[4,3-d]pyrimidin-4-yl)piperidin-3-yl)acetonitrile] displayed an IC50 of 6.3 nM.
In turn, `Nc1nc2c(-c3c(C(F)(F)F)cc4c(N5CC[C@@H]5CO)nc(OC[C@@]56CCCN5C[C@H](F)C6)nc4c3F)ccc(F)c2s1` [Example 49, ((2R)-1-(7-(2-amino-7-fluorobenzo[d]thiazol-4-yl)-8-fluoro-2-(((2R,7aS)-2-fluorotetrahydro-1H-pyrrolizin-7a(5H)-yl)methoxy)-6-(trifluoromethyl)quinazolin-4-yl)azetidin-2-yl) methanol] yielded an IC50 of 3 nM.
Consider `Nc1nc2c(-c3c(C(F)(F)F)cc4c(NC5CC(F)(F)C5)nc(OC[C@@]56CCCN5C[C@H](F)C6)nc4c3F)ccc(F)c2s1` [Example 17, 4-(4-((3,3-difluorocyclobutyl)amino)-8-fluoro-2-(((2R,7aS)-2-fluorotetrahydro-1H-pyrrolizin-7a(5H)-yl)methoxy)-6-(trifluoromethyl)quinazolin-7-yl)-7-fluorobenzo[d]thiazol-2-amine], for which the half-inhibitory concentration (IC50) turned out to be 43 nM. Against the preceding compound, the IC50 is about 14-fold higher.
`Nc1nc2c(-c3c(C(F)(F)F)cc4c(N[C@H]5C[C@H](CO)C5)nc(OC[C@@]56CCCN5C[C@H](F)C6)nc4c3F)ccc(F)c2s1` [Example 21, ((trans)-3-((7-(2-amino-7-fluorobenzo[d]thiazol-4-yl)-8-fluoro-2-(((2R,7aS)-2-fluorotetrahydro-1H-pyrrolizin-7a(5H)-yl)methoxy)-6-(trifluoromethyl)quinazolin-4-yl)amino)cyclobutyl)methanol] displayed an IC50 of 4.1 nM.
In the case of `CC[C@@H]1CCCN1c1nc(OC[C@@]23CCCN2C[C@H](F)C3)nc2c(F)c(-c3ccc(F)c4sc(N)nc34)c(C(F)(F)F)cc12` [Example 58, 4-(4-((R)-2-ethylpyrrolidin-1-yl)-8-fluoro-2-(((2R,7aS)-2-fluorotetrahydro-1H-pyrrolizin-7a(5H)-yl)methoxy)-6-(trifluoromethyl)quinazolin-7-yl)-7-fluorobenzo[d]thiazol-2-amine], the IC50 was 40 nM.
`CC1CN(c2nc(OC[C@@]34CCCN3C[C@H](F)C4)nc3c(F)c(-c4ccc(F)c5sc(N)nc45)c(C(F)(F)F)cc23)CCC1C#N` (stereo partly drawn) [Example 73, 1-(7-(2-amino-7-fluorobenzo[d]thiazol-4-yl)-8-fluoro-2-(((2R,7aS)-2-fluorotetrahydro-1H-pyrrolizin-7a(5H)-yl)methoxy)-6-(trifluoromethyl)quinazolin-4-yl)-3-methylpiperidine-4-carbonitrile] had an IC50 of 6.8 nM. Against the preceding compound, the IC50 is about 5.9-fold lower.
Take `Nc1nc2c(-c3c(C(F)(F)F)cc4c(N5CCC6(CC5)CN(CC(F)F)C(=O)O6)nc(OC[C@@]56CCCN5C[C@H](F)C6)nc4c3F)ccc(F)c2s1` [Example 90, 8-(7-(2-amino-7-fluorobenzo[d]thiazol-4-yl)-8-fluoro-2-(((2R,7aS)-2-fluorotetrahydro-1H-pyrrolizin-7a(5H)-yl)methoxy)-6-(trifluoromethyl)quinazolin-4-yl)-3-(2,2-difluoroethyl)-1-oxa-3,8-diazaspiro[4.5]decan-2-one]: the IC50 is 4.2 nM.
